This assay concerns the target T1, IL-17A/A (Homo sapiens, UniProt Q16552).
T1 construct: purchased Genscript Z03228
T1 sequence (Q16552 24-155): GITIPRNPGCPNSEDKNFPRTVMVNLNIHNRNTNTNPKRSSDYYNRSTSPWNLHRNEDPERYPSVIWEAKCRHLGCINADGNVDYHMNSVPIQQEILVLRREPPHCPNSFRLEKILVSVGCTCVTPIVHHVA
Kind of assay: IL-17A/A HEK-Blue Cell Assay. It counts as cell-based. As to conditions: HEK-Blue IL-17A reporter cell line, SEAP readout at A630, 20 hours incubation with IL-17A/A, top concentration 10 uM, 1 uM or 0.3 uM; for IC50: read-out: IL-17A/A inhibition (pIC50) (converted).

For `CCC(=O)N[C@@H](C(=O)N1CCN(C)CC1)[C@@H](C)c1ccc(NC(=O)[C@@H](NC(=O)c2ccnn2CC2CC2)C2CCCCCC2)c(F)c1` [Compound 271], the IC50 is < 10 nM. On the same count and under the same terms, next, `CCn1cc(C(F)(F)C(=O)N[C@H](C(=O)Nc2ccc([C@H](C)[C@@H](NC(=O)c3cnns3)C(=O)N3CCN(C)CC3)cc2F)[C@H]2CC[C@H](C)CC2)cn1` [Compound 407]: < 10 nM. For the molecule `CCC(=O)N[C@@H](C(=O)N1CCN(C)CC1)[C@@H](C)c1ccc(NC(=O)C(NC(=O)c2nonc2CC)C(OC)c2ccc(F)cc2)c(F)c1` (single isomer, unassigned) [Compound 609], the “IL-17A/A inhibition (pIC50)” value is “X2b (compounds were evaluated up to 1 uM and inhibited activity at 1 uM by less than 20%)”.

Take `CCC(=O)N[C@H](Cc1ccc(NC(=O)[C@@H](NC(=O)C(F)(F)c2ccc(OC)cc2)C2CCCCC2)c(F)c1)C(=O)N1CCN(C)CC1` [Compound 206]: the IC50 is 100 to 10000 nM.

In the case of `CCC(=O)N[C@@H](C(=O)N1CCN(CC)[C@@H](C)C1)[C@@H](C)c1ccc(NC(=O)[C@@H](NC(=O)c2ccnn2CC)[C@H]2CC[C@H](C)CC2)c(F)c1` [Compound 427], the IC50 is < 10 nM.

`CCC(=O)N[C@H](Cc1ccc(NC(=O)[C@@H](NC(=O)c2ccnn2CC)C2CCCCC2)c(F)c1)C(=O)N1CCN(C)C[C@@H]1C` [Compound 686]: the IC50 was 100 to 10000 nM. `CCC(=O)N[C@H](Cc1ccc(NC(=O)[C@@H](NC(=O)C(F)(F)c2cncs2)C2CCCCC2)c(F)c1)C(=O)N1CCN(C)CC1` [Compound 213]: the IC50 was 100 to 10000 nM. Regarding `CCC(=O)N[C@H](Cc1ccc(NC(=O)[C@@H](NC(=O)c2ccnn2CC)C2CCCCC2)c(F)c1)C(=O)N1CC(N(C)C)C1` [Compound 667], the IC50 was 100 to 10000 nM. For the molecule `CCC(=O)N[C@H](Cc1ccc(NC(=O)[C@H](Cc2ccc3ccccc3c2)NC(=O)c2ccnn2CC)c(F)c1)C(=O)N1CCN(C)CC1` [Compound 724], the “IL-17A/A inhibition (pIC50)” value is “X2b (compounds were evaluated up to 1 uM and inhibited activity at 1 uM by less than 20%)”.

Regarding `CCC(=O)N[C@@H](C(=O)N1CCN(C)CC1)[C@@H](C)c1ccc(NC(=O)C(NC(=O)c2ccnn2CC)C(CC)c2ccc(F)cc2)c(F)c1` (single isomer, unassigned) [Compound 554], the IC50 is 100 to 10000 nM.

In the case of `CCn1nccc1C(=O)N[C@H](C(=O)Nc1ccc([C@H](C)[C@@H](NC(=O)c2cscn2)C(=O)N2CCN(C)CC2)cc1F)C1CCCCC1` [Compound 682], the IC50 is 100 to 10000 nM.

For `CCn1nccc1C(=O)N[C@H](C(=O)Nc1ccc([C@H](C)[C@@H](NC(=O)C(C)(F)F)C(=O)N2CCN(C)CC2)cc1F)[C@H]1CC[C@H](C)CC1` [Compound 471], the IC50 is 10 to 100 nM. `CCC(=O)N[C@H](Cc1ccc(NC(=O)[C@H](Cc2cccc(Cl)c2)NC(=O)c2ccnn2CC)c(F)c1)C(=O)N1CCN(C)CC1` [Compound 726]: the “IL-17A/A inhibition (pIC50)” value is “X2b (compounds were evaluated up to 1 uM and inhibited activity at 1 uM by less than 20%)”. Consider `CCC(=O)N[C@@H](C(=O)N1CCN(C)CC1)[C@@H](C)c1ccc(NC(=O)[C@@H](NC(=O)C(F)(F)c2ccc(OC)nc2)[C@H]2CC[C@H](C)CC2)c(F)c1` [Compound 295], for which the IC50 is < 10 nM. The same measure, in the same setting: the value for `CCC(=O)N[C@@H](C(=O)N1CCN(C)CC1)[C@@H](C)c1ccc(NC(=O)[C@@H](NC(=O)c2conc2C2(C)COC2)[C@H]2CC[C@H](C)CC2)c(F)c1` [Compound 397] was 10 to 100 nM; that for `CCn1nccc1C(=O)N[C@H](C(=O)Nc1ccc([C@H](C)[C@@H](NC(=O)c2ccsn2)C(=O)N2CCN(C)CC2)cc1F)C1CCCCC1` [Compound 685] was 100 to 10000 nM; that for `CCC(=O)N[C@@H](C(=O)N1CCN(C)CC1)[C@@H](C)c1ccc(NC(=O)[C@@H](NC(=O)C(F)(F)c2cnn(CC)c2)[C@H]2CC[C@H](C)CC2)c(F)c1` [Compound 523] was < 10 nM. On to `CCC(=O)N[C@H](Cc1ccc(NC(=O)[C@@H](NC(=O)c2noc3c2CNCC3)C2CCCCC2)c(F)c1)C(=O)N1CCN(C)CC1` [Compound 705], for which the “IL-17A/A inhibition (pIC50)” value is “X2b (compounds were evaluated up to 1 uM and inhibited activity at 1 uM by less than 20%)”.

The values are drawn from patent US12421212B2, “Substituted benzenecarboxamides as IL-17A modulators” (DiCE Alpha, Inc., priority 2019, dated 2025).
